Assays:
[1] = racemic nitrendipine; cited from earlier work
[2] = oral administration with water; cited from earlier work
CYP3A4 = conditions: cited from earlier work
[3] = system: felodipine first-pass metabolism; conditions: in vivo; cited from earlier work
cytochrome P450 3A4 [4] = target: T1, cytochrome P450 3A4 (Homo sapiens, UniProt P08684); assay: Inhibition of cyclosporin A metabolism (3 metabolites M1, M6, M21) by yeast-expressed P450 3A4 microsomes; type: biochemical
T1 construct: made in house; host or cells: Saccharomyces cerevisiae strain AH22, vector pAAH5 (p3A4); microsomal fractions
Experimental: Human cytochrome P450 3A4 was expressed using the vector pAAH5 (p3A4) in Saccharomyces cerevisiae strain AH22 (Guengerich et al., 1991). Plasmid DNA was prepared using Promega's Wizard kit and S. cerevisiae strain AH22 (a his4-519 leu2-3,2-112) was used for transformation. Transformants were grown and maintained at 30° C. on minimal medium containing 2% (w/v) glucose, 0.67% (w/v) Difco yeast nitrogen base without amino acids and 20 μg/ml histidine. Cytochrome P450 content and substrate binding studies were carried out spectrally using a Philips PU8800 US/Vis scanning spectrophotometer according to Omura and Sato (1964) and Jefcoate (1979) respectively. Protein content was determined by the method of Lowry et al. 1956. […] CO was bubbled into the sample cuvette and the difference spectrum was recorded between 390-500 nm. […] Nootkatone was added to the microsomal fractions in the sample cuvette but to the buffer in the reference cuvette and difference spectra recorded between 350-500 nm. […]
The ethyl acetate extracts from biotransformation studies were directly spotted on to TLC plates and developed in solvent system heptane/pyridine/ethyl acetate (100/75/1 v/v) in a chromatographic tank lined with a blotting paper the same size as the TLC plate. […] The Rf valves of spots were measured and compared to the literature. […]

cytochrome P450 3A4 [5] = target: T1, cytochrome P450 3A4; assay: biochemical; type: binding
Experimental: Human cytochrome P450 3A4 was expressed using the vector pAAH5 (p3A4) in Saccharomyces cerevisiae strain AH22 (Guengerich et al., 1991). Plasmid DNA was prepared using Promega's Wizard kit and S. cerevisiae strain AH22 (a his4-519 leu2-3,2-112) was used for transformation. Transformants were grown and maintained at 30° C. on minimal medium containing 2% (w/v) glucose, 0.67% (w/v) Difco yeast nitrogen base without amino acids and 20 μg/ml histidine. Cytochrome P450 content and substrate binding studies were carried out spectrally using a Philips PU8800 US/Vis scanning spectrophotometer according to Omura and Sato (1964) and Jefcoate (1979) respectively. Protein content was determined by the method of Lowry et al. 1956. Yeast microsomal fractions used in reduced carbon monoxide difference spectra, substrate binding studies and metabolism studies were prepared as described previously (Mehmood et al., 1995). This involved mechanical breakage of the yeast cells (harvested at 5×10^7 cells/ml) using a Braun MSK homogeniser and centrifugation to pellet cells and mitochondria prior to harvesting microsomes after 1 h, 100000 g. […] CO was bubbled into the sample cuvette and the difference spectrum was recorded between 390-500 nm. […] Nootkatone was added to the microsomal fractions in the sample cuvette but to the buffer in the reference cuvette and difference spectra recorded between 350-500 nm.

[6] = system: cytochrome P450 or related enzyme system; assay: Inhibition of the first enzyme catalysed oxidative step (conversion of valencene to nootkatone); type: cell-based, both eukaryotes and prokaryotes; conditions: valencene oxidation; many organisms, eukaryotes and prokaryotes
Description: In addition to plant produced nootkatone a number of enzyme systems produced by organisms other than higher plants have the capability of converting synthetic precursors of nootkatone to nootkatone itself. Thus, for example, a variety of microorganisms can oxidise valencene to nootkatone.
Whilst investigating such transformations as effected by bacteria and fungi, it was deduced that the conversion was the result of two oxidative steps. The first was indicated to be carried out by an enzyme thought to be a cytochrome P450 or related enzyme system. The second appeared as an oxidoreductase transformation.

[7] = Toxicity of nootkatone at concentrations in grapefruit juice; conditions: at concentrations found in normal strength grapefruit juice (approximately 7 mg/200 ml)

T1 sequence (P08684 whole entry): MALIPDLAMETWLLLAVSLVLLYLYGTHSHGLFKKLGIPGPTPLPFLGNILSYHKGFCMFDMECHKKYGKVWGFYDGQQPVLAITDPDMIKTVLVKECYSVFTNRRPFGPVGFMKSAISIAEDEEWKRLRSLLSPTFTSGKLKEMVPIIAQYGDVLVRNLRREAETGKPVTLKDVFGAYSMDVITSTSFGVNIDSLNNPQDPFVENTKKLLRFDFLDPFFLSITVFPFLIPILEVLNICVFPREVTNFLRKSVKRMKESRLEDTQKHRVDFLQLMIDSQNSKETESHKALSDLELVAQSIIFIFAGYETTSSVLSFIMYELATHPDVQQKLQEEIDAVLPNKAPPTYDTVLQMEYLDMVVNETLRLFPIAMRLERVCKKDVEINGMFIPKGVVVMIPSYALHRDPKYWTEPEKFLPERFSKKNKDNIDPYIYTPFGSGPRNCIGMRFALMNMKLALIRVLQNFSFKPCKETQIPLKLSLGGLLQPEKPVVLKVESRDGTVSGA

In the case of `CCOC(=O)C1=C(C)NC(C)=C(C(=O)OC)C1c1cccc([N+](=O)[O-])c1` (racemic) [nitrendipine], the gastrointestinal absorption [1] is given as “almost complete” and the systemic bioavailability [1] is given as 5% to 30.
For `CCOC(=O)C1=C(C)NC(C)=C(C(=O)OC)C1c1cccc(Cl)c1Cl` (stereo not shown) [felodipine], the average bioavailability [2] is listed as 15%.
For `CC(=O)N1CCN(c2ccc(OCC3COC(Cn4ccnc4)(c4ccc(Cl)cc4Cl)O3)cc2)CC1` (stereo not shown) [ketoconazole], the “inhibition of CYP3A4” value (CYP3A4) is given as “known to inhibit CYP3A4”.
In the case of `C[C@@H]1O[C@@H](O[C@H]2[C@H](Oc3cc(O)c4c(c3)O[C@H](c3ccc(O)cc3)CC4=O)O[C@H](CO)[C@@H](O)[C@@H]2O)[C@H](O)[C@H](O)[C@H]1O` [naringin], the “interaction with felodipine compared with grapefruit juice” value [3] is listed as “less interaction”.
In the case of `C=C(C)C1CCC2=CC(O)CC(C)C2(C)C1` (stereo not shown) [nootkatol], the “inhibitory effect compared with nootkatone” value (cytochrome P450 3A4 [4]; similar experiments to nootkatone) is reported as “less marked inhibitory effect”.
For `C=C(C)[C@@H]1CCC2=CC(=O)C[C@@H](C)[C@]2(C)C1` [nootkatone], the IC50 (cytochrome P450 3A4 [4]) was less than 140 µM, the Kd (cytochrome P450 3A4 [5]) was 80 to 100 µM and the “inhibition of the first enzyme catalysed oxidative step” value [6] was “acts as an inhibitor of the first enzyme catalysed oxidative step”. For the same molecule, the toxicity [7] was “does not appear to be toxic”.
